Measurements: patent publication US9695155B2, “Herbicidal substituted pyrimidinyloxy benzene compounds” (E. I. DU PONT DE NEMOURS AND COMPANY, priority 2013, dated 2017)

Assays:
rice = assay: Test B flooded paddy test; format: in vivo, Oryza sativa; settings: Flood, 250 g ai/ha, 0 to 100 scale where 0 is no effect and 100 is complete control
Summary of the method: (§1)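 Greenhouse flooded-pot test: compounds dosed into 3 cm standing water over 2-leaf plants, flood held constant. Rated visually after 13–15 days on 0–100 (complete control = 100); a dash marks no test result.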

barnyardgrass [1] = assay: Test A postemergence; format: in vivo, Echinochloa crus-galli
Summary of the method: (§2)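 Visual injury scored 0–100 (100 = complete control) against untreated controls about 10 days after treatment in a greenhouse. Test chemicals, formulated with surfactant in non-phytotoxic solvent, were sprayed on soil preemergence or on 2-10 cm, one- to two-leaf plants postemergence.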

soybean = assay: Test C postemergence; format: in vivo, Glycine max; settings: for Soybean plant response rating: 31 g ai/ha
Summary of the method: (§3)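 Sown in loam/sand → sprayed pre-emergence; or grown to 1–4 leaves in peat mix → sprayed post-emergence. Same solvent/surfactant formulation both ways. Greenhouse 13–15 d. Score 0–100 visual.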

large (Lg) crabgrass = assay: Test C postemergence; format: in vivo, Digitaria sanguinalis
Summary of the method: as §3

corn = assay: Test A postemergence; format: in vivo, Zea mays
Summary of the method: as §2

sedge, umbrella = assay: Test B flooded paddy test; format: in vivo, Cyperus difformis; settings: Flood, 250 g ai/ha, 0 to 100 scale where 0 is no effect and 100 is complete control
Summary of the method: as §1

oilseed rape = assay: Test C postemergence; format: in vivo, Brassica napus; settings: for Oilseed Rape plant response rating: 31 g ai/ha
Excerpt: (§4) Seeds of plant species selected from blackgrass (Alopecurus myosuroides), Italian ryegrass (Lolium multiflorum), wheat, winter (winter wheat, Triticum aestivum), galium (catchweed bedstraw, Galium aparine), corn (Zea mays), large (Lg) crabgrass (Digitaria sanguinalis), giant foxtail (Setaria faberii), johnsongrass (Sorghum halepense), lambsquarters (Chenopodium album), morningglory (Ipomoea coccinea), yellow nutsedge (Cyperus esculentus), pigweed (Amaranthus retroflexus), ragweed (common ragweed, Ambrosia elatior), soybean (Glycine max), barnyardgrass (Echinochloa crus-galli), oilseed rape (Brassica napus), waterhemp (common waterhemp, Amaranthus rudis), kochia (Kochia scoparia), wild oat (Avena fatua), surinam grass (Brachiaria decumbens), foxtail, green (green foxtail, Setaria viridis), goosegrass (Eleusine indica), bromegrass, downy (downy bromegrass, Bromus tectorum), nightshade (eastern black nightshade, Solanum ptycanthum), cocklebur (common cocklebur, Xanthium strumarium), cupgrass, woolly (woolly cupgrass, Eriochloa villosa), bermudagrass (Cynodon dactylon), sunflower, (common oilseed sunflower, Helianthus annuus), Russian thistle (Salsola kali), and velvetleaf (Abutilon theophrasti) were planted into a blend of loam soil and sand and treated preemergence with test chemicals formulated in a non-phytotoxic solvent mixture which included a surfactant.
(§5) At the same time, plants selected from these crop and weed species and also barley, winter (winter barley, Hordeum vulgare), windgrass (Apera spica-venti), chickweed (common chickweed, Stellaria media), deadnettle (henbit deadnettle, Lamium amplexicaule), and canarygrass (littleseed canarygrass, Phalaris minor) were planted in pots containing Redi-Earth® planting medium (Scotts Company, 14111 Scottslawn Road, Marysville, Ohio 43041) comprising spaghnum peat moss, vermiculite, wetting agent and starter nutrients and treated with postemergence applications of test chemicals formulated in the same manner. Plants ranged in height from 2 to 18 cm (1- to 4-leaf stage) for postemergence treatments. Treated plants and controls were maintained in a greenhouse for 13 to 15 days, after which time all species were compared to controls and visually evaluated. Plant response ratings, summarized in Table C, are based on a scale of 0 to 100 where 0 is no effect and 100 is complete control. A dash (-) response means no test result.

velvetleaf = assay: Test C postemergence; format: in vivo, Abutilon theophrasti; settings: for Velvetleaf plant response rating: 31 g ai/ha
Summary of the method: as §3

waterhemp = assay: Test C postemergence; format: in vivo, Amaranthus rudis; settings: for Waterhemp plant response rating: 31 g ai/ha
Excerpt: as §4, §5

barnyardgrass [2] = assay: Test A preemergence; format: in vivo, Echinochloa crus-galli
Summary of the method: as §2

lambsquarters = assay: Test C postemergence; format: in vivo, Chenopodium album; settings: for Lambsquarters plant response rating: 31 g ai/ha
Summary of the method: as §3

[3] = 125 g ai/ha, 0 to 100 scale, 0 no effect, 100 complete control
[4] = 500 g ai/ha, 0 to 100 scale where 0 is no effect and 100 is complete control
[5] = postemergence, visual rating, scale 0 to 100 (0 no effect, 100 complete control), 13 to 15 days
[6] = 125 g ai/ha, postemergence, visual rating, scale 0 to 100 (0 no effect, 100 complete control)
[7] = Postemergence, 62 g ai/ha, scale 0 to 100 (0 no effect, 100 complete control), 13 to 15 days

`N#Cc1cccc(Oc2ncc(Cl)cn2)c1-n1cc(-n2ccc(C(F)(F)F)n2)cn1` [Compound 284] was tested, and the “Plant response rating, Rice” value (rice) was 0, the “Plant response rating, Barnyardgrass” value (barnyardgrass [1]; [3]) was 30 and the “Plant response rating, Barnyardgrass” value (barnyardgrass [1]; [4]) was 90. For the same compound, the “Soybean plant response rating” value (soybean; [5]) was 35, the “Plant response rating, Soybean” value (soybean; [6]) was 85 and the “Plant response rating (0 to 100), Soybean” value (soybean; 250 g ai/ha, postemergence) was 65. The “Plant response rating, Soybean” value (soybean; [7]) was 40, the “Crabgrass, Large plant response rating” value (large (Lg) crabgrass; 31 g ai/ha, postemergence, visual rating, scale 0 to 100 (0 no effect, 100 complete control), 13 to 15 days) was 5 and the “Plant response rating, Crabgrass, Large” value (large (Lg) crabgrass; [6]) was 10. For the same compound, the “Plant response rating (0 to 100), Crabgrass, Large” value (large (Lg) crabgrass; 250 g ai/ha, postemergence) was 10, the “Plant response rating, Crabgrass, Large” value (large (Lg) crabgrass; [7]) was 5 and the “Plant response rating, Corn” value (corn; [3]) was 20. The “Plant response rating, Corn” value (corn; [4]) was 40, the “Plant response rating, Sedge, Umbrella” value (sedge, umbrella) was 85 and the “Oilseed Rape plant response rating” value (oilseed rape; [5]) was 70. The “Plant response rating, Oilseed Rape” value (oilseed rape; [6]) was 80, the “Plant response rating (0 to 100), Oilseed Rape” value (oilseed rape; 250 g ai/ha, postemergence) was 80 and the “Plant response rating, Oilseed Rape” value (oilseed rape; [7]) was 70. For the same compound, the “Velvetleaf plant response rating” value (velvetleaf; [5]) was 15, the “Plant response rating, Velvetleaf” value (velvetleaf; [6]) was 30 and the “Plant response rating (0 to 100), Velvetleaf” value (velvetleaf; 250 g ai/ha, postemergence) was 70. The “Plant response rating, Velvetleaf” value (velvetleaf; [7]) was 15, the “Waterhemp plant response rating” value (waterhemp; [5]) was 85 and the “Plant response rating, Waterhemp” value (waterhemp; [6]) was 98. For the same compound, the “Plant response rating (0 to 100), Waterhemp” value (waterhemp; 250 g ai/ha, postemergence) was 100, the “Plant response rating, Waterhemp” value (waterhemp; [7]) was 85 and the “Barnyardgrass plant response rating (0 to 100 scale, 0 is no effect, 100 is complete control)” value (barnyardgrass [2]; 125 g ai/ha) was 60. For the same compound, the “Barnyardgrass plant response rating” value (barnyardgrass [2]; [4]) was 90, the “Lambsquarters plant response rating” value (lambsquarters; [5]) was 70 and the “Plant response rating, Lambsquarters” value (lambsquarters; [6]) was 98. For the same compound, the “Plant response rating (0 to 100), Lambsquarters” value (lambsquarters; 250 g ai/ha, postemergence) was 98 and the “Plant response rating, Lambsquarters” value (lambsquarters; [7]) was 85.
Work on `Fc1cccc(Oc2ncc(Cl)cn2)c1-n1cc(Br)cn1` [Compound 178, 2-[2-(4-bromo-1H-pyrazol-1-yl)-3-fluorophenoxy]-5-chloropyrimidine] yielded a plant injury at 250 g/ha (rice; Oryza sativa, read-out: Plant response rating, Rice) of 0%, a pest or weed control at 125 g/ha (barnyardgrass [1]; Echinochloa crus-galli, post-emergence, 240 h, 125 g ai/ha, 0 to 100 scale where 0 is no effect and 100 is complete control, read-out: Barnyardgrass plant response rating) of 70% and a pest or weed control at 500 g/ha (barnyardgrass [1]; Echinochloa crus-galli, post-emergence, 240 h, 500 g ai/ha, 0 to 100 scale where 0 is no effect and 100 is complete control, read-out: Plant response rating, Barnyardgrass) of 100%. For the same compound, the “Soybean plant response rating” value (soybean; [5]) was 70, the Soybean plant response rating (crop injury, 0-100 scale) at 16 g/ha (soybean; Glycine max, post-emergence, 16 g ai/ha, postemergence, 0 is no effect, 100 is complete control) was 50% and the Soybean plant response rating (crop injury, 0-100 scale) at 125 g/ha (soybean; Glycine max, post-emergence, 125 g ai/ha, postemergence, visual rating, scale 0 to 100 (0 no effect, 100 complete control), read-out: Plant response rating, Soybean) was 95%. The Soybean plant response rating (crop injury, 0-100 scale) at 62 g/ha (soybean; Glycine max, post-emergence, Postemergence, 62 g ai/ha, scale 0 to 100 (0 no effect, 100 complete control)) was 65%, the pest or weed control at 16 g/ha (large (Lg) crabgrass; Digitaria sanguinalis, post-emergence, 16 g ai/ha, postemergence, 0 is no effect, 100 is complete control, read-out: Plant response rating (0 to 100), Crabgrass, Large) was 5% and the pest or weed control at 31 g/ha (large (Lg) crabgrass; Digitaria sanguinalis, post-emergence, 31 g ai/ha, postemergence, visual rating, scale 0 to 100 (0 no effect, 100 complete control), 13 to 15 days, read-out: Crabgrass, Large plant response rating) was 10%. It also gave a pest or weed control at 125 g/ha (large (Lg) crabgrass; Digitaria sanguinalis, post-emergence, 125 g ai/ha, postemergence, visual rating, scale 0 to 100 (0 no effect, 100 complete control), read-out: Plant response rating, Crabgrass, Large) of 10%, a pest or weed control at 62 g/ha (large (Lg) crabgrass; Digitaria sanguinalis, post-emergence, Postemergence, 62 g ai/ha, scale 0 to 100 (0 no effect, 100 complete control), read-out: Plant response rating, Crabgrass, Large) of 5% and a plant injury at 125 g/ha (corn; Zea mays, post-emergence, 240 h, 125 g ai/ha, 0 to 100 scale where 0 is no effect and 100 is complete control, read-out: Corn plant response rating) of 30%. The Corn plant response rating (crop injury, 0 = no effect, 100 = complete kill) at 500 g/ha (corn; Zea mays, post-emergence, 240 h, 500 g ai/ha, 0 to 100 scale where 0 is no effect and 100 is complete control) was 70%, the pest or weed control at 250 g/ha (sedge, umbrella; Cyperus difformis, read-out: Plant response rating, Sedge, Umbrella) was 0% and the “Oilseed Rape plant response rating” value (oilseed rape; [5]) was 85. It also gave a plant injury at 16 g/ha (oilseed rape; Brassica napus, post-emergence, 16 g ai/ha, postemergence, 0 is no effect, 100 is complete control, read-out: Plant response rating (0 to 100), Oilseed Rape) of 70%, a plant injury at 125 g/ha (oilseed rape; Brassica napus, post-emergence, 125 g ai/ha, postemergence, visual rating, scale 0 to 100 (0 no effect, 100 complete control), read-out: Plant response rating, Oilseed Rape) of 98% and a plant injury at 62 g/ha (oilseed rape; Brassica napus, post-emergence, Postemergence, 62 g ai/ha, scale 0 to 100 (0 no effect, 100 complete control), read-out: Plant response rating, Oilseed Rape) of 90%. For the same compound, the “Velvetleaf plant response rating” value (velvetleaf; [5]) was 70, the pest or weed control at 16 g/ha (velvetleaf; Abutilon theophrasti, post-emergence, 16 g ai/ha, postemergence, 0 is no effect, 100 is complete control, read-out: Plant response rating (0 to 100), Velvetleaf) was 50% and the pest or weed control at 125 g/ha (velvetleaf; Abutilon theophrasti, post-emergence, 125 g ai/ha, postemergence, visual rating, scale 0 to 100 (0 no effect, 100 complete control), read-out: Plant response rating, Velvetleaf) was 100%. For the same compound, the pest or weed control at 62 g/ha (velvetleaf; Abutilon theophrasti, post-emergence, Postemergence, 62 g ai/ha, scale 0 to 100 (0 no effect, 100 complete control), read-out: Plant response rating, Velvetleaf) was 85%, the “Waterhemp plant response rating” value (waterhemp; [5]) was 90 and the pest or weed control at 16 g/ha (waterhemp; Amaranthus tuberculatus, post-emergence, 16 g ai/ha, postemergence, 0 is no effect, 100 is complete control, read-out: Plant response rating (0 to 100), Waterhemp) was 80%. The pest or weed control at 125 g/ha (waterhemp; Amaranthus tuberculatus, post-emergence, 125 g ai/ha, postemergence, visual rating, scale 0 to 100 (0 no effect, 100 complete control), read-out: Plant response rating, Waterhemp) was 100%, the pest or weed control at 62 g/ha (waterhemp; Amaranthus tuberculatus, post-emergence, Postemergence, 62 g ai/ha, scale 0 to 100 (0 no effect, 100 complete control), read-out: Plant response rating, Waterhemp) was 90% and the pest or weed control at 125 g/ha (barnyardgrass [2]; Echinochloa crus-galli, pre-emergence, 240 h, 125 g ai/ha, 0 to 100 scale where 0 is no effect and 100 is complete control, read-out: Plant response rating, Barnyardgrass) was 90%. For the same compound, the pest or weed control at 500 g/ha (barnyardgrass [2]; Echinochloa crus-galli, pre-emergence, 240 h, 500 g ai/ha, 0 to 100 scale where 0 is no effect and 100 is complete control, read-out: Barnyardgrass plant response rating) was 100%, the “Lambsquarters plant response rating” value (lambsquarters; [5]) was 80 and the pest or weed control at 16 g/ha (lambsquarters; Chenopodium album, post-emergence, 16 g ai/ha, postemergence, 0 is no effect, 100 is complete control, read-out: Plant response rating (0 to 100), Lambsquarters) was 70%. It also gave a pest or weed control at 125 g/ha (lambsquarters; Chenopodium album, post-emergence, 125 g ai/ha, postemergence, visual rating, scale 0 to 100 (0 no effect, 100 complete control), read-out: Plant response rating, Lambsquarters) of 98% and a pest or weed control at 62 g/ha (lambsquarters; Chenopodium album, post-emergence, Postemergence, 62 g ai/ha, scale 0 to 100 (0 no effect, 100 complete control), read-out: Plant response rating, Lambsquarters) of 85%.
